In US10265329B2, “Altering steroid metabolism for treatment of steroid-dependent disease” (THE CLEVELAND CLINIC FOUNDATION, priority 2015, dated 2019):
Like-named read-outs stand apart in the source and are kept apart here.

Assays:
SRD5A = target: T1, SRD5A (Homo sapiens, UniProt P18405); assay: Conversion of [3H]-AD to 5α-reduced androgens in LAPC4 cells; type: cell-based
T1 construct: endogenous in cells; host or cells: LAPC4
T1 sequence (P18405 1-259): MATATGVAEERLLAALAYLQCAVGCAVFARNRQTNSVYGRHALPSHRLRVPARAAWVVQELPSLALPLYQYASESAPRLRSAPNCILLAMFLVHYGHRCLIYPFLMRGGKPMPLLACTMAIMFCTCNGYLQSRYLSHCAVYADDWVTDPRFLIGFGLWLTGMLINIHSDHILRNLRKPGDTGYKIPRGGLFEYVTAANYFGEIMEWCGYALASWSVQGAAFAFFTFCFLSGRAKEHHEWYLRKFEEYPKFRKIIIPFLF
Procedure: Cell Line Metabolism: Cells were seeded and incubated in 12-well plates with 0.2 million cells/well for ˜24 h and then incubated with a mixture of radioactive ([^3H]-labeled) and non-radioactive androgens (final concentration, 100 nM; ˜1,000,000 cpm/well; PerkinElmer, Waltham, Mass.) at 37° C. Aliquots of medium were collected at the indicated times. Collected medium was treated with 1,000 units of β-glucuronidase (Helix pomatia; Sigma-Aldrich) at 65° C. for 2 h, extracted with 860 μL ethyl acetate:isooctane (1:1), and concentrated under nitrogen gas. Xenograft Metabolism: 10^7 LNCaP or VCaP cells were injected subcutaneously with Matrigel into surgically orchiectomized NSG mice that were implanted with 5 mg 90-day sustained-release DHEA pellets (Innovative Research of American, Sarasota, Fla.). Xenografts were harvested when they reached 1000 mm^3, minced, and cultured in DMEM with 10% FBS at 37° C. with mixture of radioactive ([^3H]-labeled) and non-radioactive androgens, or Abi, when they reached 1000 mm^3. Each xenograft was analyzed in triplicate in at least three independent experiments. Aliquots of medium were collected at the indicated times. Collected medium was treated with 1,000 units of β-glucuronidase at 65° C. for 2 h, extracted with 860 μL ethyl acetate:isooctane (1:1), and concentrated under nitrogen gas.
Dried samples were reconstituted in 50% methanol and injected into the HPLC. Steroids and drug metabolites were separated on Kinetex 100×2.1 mm, 2.6 μm particle size C18 reverse-phase column (Phenomenex, Torrance, Calif.) using a methanol/water gradient at 30° C. […] Alternatively, dried samples were applied to plastic-backed silica gel plates and separated by thin-layer chromatography (TLC) using a mobile phase of 3:1 chloroform:ethyl acetate, followed by exposure of the plates to a phosphorimager screen and quantitated with a Storm model 860 phosphorimager (Applied Biosystems, Foster City, Calif.). […] Results are shown as mean±SD.
Collected medium was treated with β-glucuronidase (Helix pomatia; Sigma-Aldrich), extracted with ethyl acetate:isooctane (1:1), and concentrated under nitrogen gas as described. Li et al., 523, 347-351 (2015).
Dried samples were reconstituted in 50% methanol and separated on Kinetex 100×2.1 mm, 2.6 μm particle size C18 reverse-phase column (Phenomenex, Torrance, Calif.) using a methanol/water gradient at 30° C. […] Results are shown as mean±SD.

[1] = Phase II clinical trial NCT01393730: serum Abi metabolites before and after dutasteride; type: in vivo, human; conditions: for mean serum concentration, cycle 3: Abi acetate 1000 mg daily plus prednisone alone; for mean serum concentration, cycle 3 / mean serum concentration, cycle 4: 16 patients; for mean serum concentration, cycle 4: after addition of dutasteride 3.5 mg once daily
Procedure: Twelve patients with CRPC undergoing treatment with Abi acetate at Cleveland Clinic were consented under an Institutional Review Board—approved protocol (Case 7813). Blood was collected using Vacutainer Plus serum blood collection tubes (#BD367814, Becton Dickenson, Franklin Lakes, N.J.), between 1 and 16 hours after the 1000 mg daily dose of Abi acetate was administered, and allowed to clot. Tubes were centrifuged at 2500 RPM or 1430×g for 10 minutes. Serum aliquots were frozen at −80° C. until processing. To study the effect of dutasteride on Abi metabolism, serum samples were collected from patients treated on a phase II clinical trial at Dana-Farber Cancer Institute (NCT01393730). Each patient received Abi acetate (1,000 mg daily) plus prednisone (5 mg daily) for 2 cycles (8 weeks) and then additional treatment with dutasteride ([…]) was initiated. Samples were collected on treatment with Abi alone and after addition of dutasteride (start of cycles 3, 4 and 7). Seventeen patients treated at this institution on this clinical trial had blood available from all 3 time points. One patient had Abi concentrations that were under the limit of detection and was later determine to have stopped treatment because of adverse effects and was therefore not included in the analysis. Drug metabolites and internal standard (d4-abiraterone, Toronto Research Chemicals Inc, Ontario Canada) were extracted from 100 μL of patient serum with methyl tert-butyl ether (Sigma Aldrich, St. Louis, Mo.), evaporated under a stream of nitrogen gas and reconstituted in methanol:water (50:50) prior to mass spectrometry analysis. Standard curves were generated using human serum spiked with known concentrations of each metabolite to enable determination of unknown concentrations in patient samples
Samples were analyzed on a ultra high-performance liquid chromatography station (Shimadzu, Kyoto, Japan) with a DGU-20A3R degasser, 2 LC-30AD pumps, a SIL-30AC autosampler, a CTO-10A column oven and a CBM-20A system controller in tandem with a QTRAP 5500 mass spectrometer (AB Sciex, Framingham, Mass.). Drug metabolites were ionized using electrospray ionization in positive ion mode. Multiple reaction monitoring was used to follow mass transitions for Abi, IS, and the metabolites (Table 1). Due to the similarity in structure and mass transitions for the metabolites it was necessary to separate them with chromatography. Separation of drug metabolites was achieved using a mobile phase consisting of LC-MS grade (Fisher) methanol: acetonitrile: water:formic acid (39:26:34:1) at a flow rate of 0.2 ml/min., and C18 analytical column; Zorbax Eclipse plus 150×2.1 mm, 3.5 μm (Agilent, Santa Clara, Calif.).

Structure (SMILES)	SRD5A inhibition activity relative to D4A (SRD5A; LAPC4, [3H]-AD to 5α-dione, 24 hours)	decline in mean serum concentration after the addition of dutasteride ([1]; cycle 3 vs. cycle 4) [%]	SRD5A inhibition activity relative to D4A (SRD5A)	mean serum concentration, cycle 3 [1] [nM]	mean serum concentration, cycle 4 [1] [nM]	block of conversion from AD to 5α-androstanedione and other 5α-reduced androgens (SRD5A; 10 μM, LAPC4 cells)
C[C@]12CC[C@@H](O)C[C@@H]1CC[C@@H]1[C@@H]2CC[C@]2(C)C(c3cccnc3)=CC[C@@H]12 [Compound 3α-OH-5α-Abi, 17-(3-pyridyl)-5α-androsta-16-ene-3α-ol]	lose SRD5A inhibition activity	92				
C[C@]12CCC(=O)C[C@@H]1CC[C@@H]1[C@@H]2CC[C@]2(C)C(c3cccnc3)=CC[C@@H]12 [Compound 5α-Abi, 17-(3-pyridyl)-5α-androsta-16-ene-3-one]			lose SRD5A inhibition activity	25.8	2.9	
C[C@]12CCC(=O)C=C1CC[C@@H]1[C@@H]2CC[C@]2(C)C(c3cccnc3)=CC[C@@H]12 [Compound D4A, 17-(3-Pyridyl)androsta-4,16-dien-3-one]				9.9	18.2	nearly completely blocks
